Laboratory results taken from patent US20230287415A1, “COMBINED THERAPY AGAINST CANCER” (FUNDACIÓ INSTITUT HOSPITAL DEL MAR D'INVESTIGACIONS …, priority 2020, published 2023).

Experiments:
LCoR = assay: Doxorubicin treatment of breast cancer cells, LCoR mRNA by qRT-PCR; type: cell-based, human; conditions: 360 nM during 48 hours, MDA-MB-231 cells
Experimental: Low dose treatment of breast cancer cells (360 nM during 48 hours) induced an increase of 2.3 fold change mRNA expression of LCoR in MDA-MB-231 cells.
Cell lines, culture conditions and treatments. All cell lines used in the study, including mammary epithelial cell lines (human HMLE), breast cancer cell lines (human MDA-MB-231 and mouse 4TO7; PyMT8119; AT3 cell lines) and other cell lines (HEK293T, H29 and HeLa), were cultured using the standard conditions according the American Type Culture Collection (ATCC) instructions. Doxorrubicin treatment was performed at 360 nM during 48 hours in MDA-MB-231 cells.
qRT-PCR analyses. Total mRNA was isolated using the RNAeasy isolation Kit (QIAGEN). mRNA reverse transcription was done using Applied Biosystems reactants and real-time quantitative PCR performed using the Power SYBR green PCR master mix (Applied Biosystems). All analyses were performed using an ABI 7900HT PCR machine. mRNA expression was normalized by the expression of GAPDH in each sample.

PyMT8119-OVA cells = assay: Cytotoxic T-cell lymphocyte (CTL) co-culture assay; type: cell-based, mouse; conditions: OT-I CD8+ T-cells co-cultured with LCoR-OE tumor cells, in combination with anti-PD-L1
Text: These paradoxical effects of LCoR, increased immunogenicity vs. increased PD-L1, poses LCoR expressing cells as largely responsive cells to anti-PD-L1 immune-checkpoint blockade therapy.
The transgenic OT-I mouse model strain with specific TCR for the OVA-derived peptide SIINFEKL MHC-I presented, were used to isolate splenocytes and CD8+T-cells that specifically recognize the SIINFEKL peptide (OVA 257-264). 9-week OT-I mice were sacrificed to obtain the spleen. Using mechanical dissociation of the spleen over a sterile 40 μm mesh screen. Total splenocytes were plated in six well plates and non-attached T cells were separated from adherent dendritic cells (DC) after 24 hours. CD8+T-cells were isolated by FACS.
Cytotoxic T-cell lymphocyte (CTL) co-culture assays. CD8+ T-cells were isolated from the spleen of OT-I mice and activated in culture with OVA peptide during 48 hours. Activated CD8+ T-cells were cocultured in 24-well plates with PyMT8119-OVA cells in different ratios of effector T-cells:tumor cells (E:T). After 5 days of coculture, T-cells and debris were removed, washed with media and stained with Sulforhodamine B (SRB) for measuring cytotoxicity (Vichai and Kirtikara 2006). […]

Question: Which “increase of mRNA expression of LCoR” value (LCoR) does the source give for COc1cccc2c1C(=O)c1c(O)c3c(c(O)c1C2=O)C[C@@](O)(C(=O)CO)C[C@@H]3O[C@H]1C[C@H](N)[C@H](O)[C@H](C)O1 [Doxorubicin] here?
Answer: 2.3 fold change

Question: How did the “sensitivity to immune detection and killing” value (PyMT8119-OVA cells) turn out when Atezolizumab was run?
Answer: enhanced sensitivity to immune detection and killing
